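Exposure lasted 48 hours, with cells grown in 96-well plates and compounds tested at five concentrations. The concentration for full growth arrest is given as TGI.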
Assays:
Experiment in all cases: NCI-60 cell line screen, 48 h
[1] = test system: 786-0 renal
[2] = test system: DU-145 prostate
[3] = test system: HT29 colon
[4] = test system: KM12 colon
[5] = test system: RPMI-8226 leukemia
[6] = test system: RXF 393 renal
[7] = test system: SF-295 CNS
[8] = test system: SR leukemia
[9] = test system: UACC-257 melanoma

Measured: TGI

O=C(O)c1nn(-c2ccccc2-c2n[nH]c(=O)[nH]c2=O)c(=O)[nH]c1=O
> 100 µM: [1] | [2] | [3] | [4] | [5] | [6] | [7] | [8] | [9]

Source: PubChem BioAssay (NCI)
